The text below walks through data of patent US8637510B2, “Morpholinothiazoles as alpha 7 positive allosteric modulators” (Janssen Pharmaceutica NV, priority 2009, dated 2014).

Molecules are shown by their SMILES.

In one data set the target is T1, human alpha 7-wt nAChR (Homo sapiens, UniProt P36544).
T1 construct: expressed in transfected cells
In words: Ca2+ flux imaging (FDSS) (Protocol B). The data set is classed as cell-based. Particulars: for EC50: potentiation of 100 μM choline, compounds 0.01 μM to 30 μM, read-out: a7-PAM-G_[33]_pEC50 pEC50 (converted); for Emax: efficacy of 100 μM choline defined as 100% in the absence of a PAM, read-out: a7-PAM-G_[33]_Eff_Curve_FI % Efficacy. The procedure, abridged: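 PAM activity was measured as FDSS calcium fluorescence in α7-wt nAChR cells loaded with 2 μM Fluo-4AM, with compounds at 0.01–30 μM added alongside or 10 min ahead of sub-maximal 100 μM choline. Peak responses were normalised to choline-only efficacy, and EC50 was taken at half-maximal effect.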

Data set [1] deals with T2, human alpha 7-wt nAChR-expressing GH4C1 cells (Homo sapiens, UniProt P36544).
T2 construct: expressed in transfected cells
Kind of data set: Patch-clamp current recording (whole-cell voltage-clamp, PAM type classification). The data set is classed as cell-based. Set-up: key: Type 0 compounds minimally change the effect size of the current elicited by 1 mM choline.; Type 1 compounds enhance the effect size of the current elicited by 1 mM choline but minimally alter the kinetics of the receptor.; Type 2 compounds enhance the effect size of the current elicited by 1 mM choline while reducing the rate and/or the extent of desensitization.; Type 3 compounds enhance the effect size of the current elicited by 1 mM choline. When tested at higher concentrations up to 10 μM they completely inhibit desensitization; Type 4 compounds allow for an initial desensitization of the receptor followed by a re-opening of the receptor during agonist application. Particulars: 1 mM choline. The procedure, abridged: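 Whole-cell voltage clamp of GH4C1 cells stably expressing human wild-type α7 nAChR, with compound co-applied with 1 mM choline via rapid (<100 ms) solution switching; external pH 7.3, CsCl-based internal solution, 1.5-3 MΩ electrodes. PAM type (0-4) assigned from current kinetics when peak potentiation reached ≥200% of control choline response.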

T1 sequence (P36544 23-502): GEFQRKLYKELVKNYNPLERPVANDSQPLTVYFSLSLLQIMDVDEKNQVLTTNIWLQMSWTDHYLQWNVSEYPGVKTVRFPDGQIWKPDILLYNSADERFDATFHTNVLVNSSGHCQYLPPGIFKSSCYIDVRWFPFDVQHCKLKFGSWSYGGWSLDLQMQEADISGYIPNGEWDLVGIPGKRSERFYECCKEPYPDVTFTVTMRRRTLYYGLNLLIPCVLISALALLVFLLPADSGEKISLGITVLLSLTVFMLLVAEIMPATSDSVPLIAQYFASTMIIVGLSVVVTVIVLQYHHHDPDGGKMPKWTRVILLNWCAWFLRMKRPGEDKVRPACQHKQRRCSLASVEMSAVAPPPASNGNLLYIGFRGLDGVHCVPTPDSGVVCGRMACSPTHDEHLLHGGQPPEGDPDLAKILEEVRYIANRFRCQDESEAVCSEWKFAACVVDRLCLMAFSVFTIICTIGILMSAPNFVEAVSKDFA
T2 sequence (P36544 23-502): as above

Regarding `Cc1cc(-c2sc(N3CC4CCC(C3)O4)nc2CNC(=O)C(C)C)cc(C)n1` [Compound 207, N-[[5-(2,6-dimethyl-4-pyridinyl)-2-(8-oxa-3-azabicyclo[3.2.1]oct-3-yl)-4-thiazolyl]methyl]-2-methyl-propanamide], the melting point came out at 179 °C. In addition, the EC50 at human alpha 7-wt nAChR was 3310 nM. For the same compound, the “PAM_Type PAM type” value in data set [1] turned out to be 1.

The compound `Cc1cc(-c2sc(N3CCOC(C(F)(F)F)C3)nc2CNC(=O)c2conc2C)cc(C)n1` (stereo not shown) [Compound 196, N-[[5-(2,6-dimethyl-4-pyridinyl)-2-[2-(trifluoromethyl)-4-morpholinyl]-4-thiazolyl]methyl]-3-methyl-4-isoxazolecarboxamide] returned a melting point of 178 °C. Further, at human alpha 7-wt nAChR, the Emax was found to be 819% and the EC50 is 56.2 nM. For the same compound, the “PAM_Type PAM type” value in data set [1] is listed as 2.

Compound `Cc1cc(-c2sc(N3C[C@@H](C)O[C@@H](C)C3)nc2CNC(=O)c2ncsc2C)cc(C)n1` [Compound 178, N-[[2-[(2R,6S)-2,6-dimethyl-4-morpholinyl]-5-(2,6-dimethyl-4-pyridinyl)-4-thiazolyl]methyl]-5-methyl-4-thiazolecarboxamide] had a melting point of 180 °C. On human alpha 7-wt nAChR, the Emax was 733% and the EC50 is 501 nM. Moreover, the “PAM_Type PAM type” value in data set [1] was found to be 0.

Take `COc1cc(-c2sc(N3C[C@@H](C)O[C@@H](C)C3)nc2CNC(=O)C2CCC2)cc(C)n1` [Compound 84, N-[[2-[(2R,6S)-2,6-dimethyl-4-morpholinyl]-5-(2-methoxy-6-methyl-4-pyridinyl)-4-thiazolyl]methyl]-cyclobutanecarboxamide]: the melting point amounted to 171 °C. Further, at human alpha 7-wt nAChR, the Emax came out at 443% and the EC50 is 102 nM. Moreover, the “PAM_Type PAM type” value in data set [1] is 2.

`Cc1cc(-c2sc(N3CCOC(C)C3)nc2CNC(=O)C(C)C)cc(C)n1` (single isomer, unassigned) [Compound 76, N-[[5-(2,6-dimethyl-4-pyridinyl)-2-[(2R*)-2-methyl-4-morpholinyl]-4-thiazolyl]methyl]-2-methyl-propanamide] displayed a melting point of 189 °C. At human alpha 7-wt nAChR, the Emax worked out at 611% and the EC50 was 550 nM. For the same compound, in data set [1], the “PAM_Type PAM type” value is 2.

As to `Cc1cc(-c2sc(N3CCOC(C)(C)C3)nc2CNC(=O)c2ccc(F)cc2C)cc(C)n1` [Compound 157, N-[[2-(2,2-dimethyl-4-morpholinyl)-5-(2,6-dimethyl-4-pyridinyl)-4-thiazolyl]methyl]-4-fluoro-2-methyl-benzamide], the melting point was determined as 197 °C. The EC50 on human alpha 7-wt nAChR is 224 nM. Moreover, the “PAM_Type PAM type” value in data set [1] stood at 2.

`Cc1cc(-c2sc(N3CCOC(C(F)(F)F)C3)nc2CNC(=O)c2cc(C)on2)cc(C)n1` (stereo not shown) [Compound 195, N-[[5-(2,6-dimethyl-4-pyridinyl)-2-[2-(trifluoromethyl)-4-morpholinyl]-4-thiazolyl]methyl]-5-methyl-3-isoxazolecarboxamide]: the melting point was 170 °C. Also, the EC50 at human alpha 7-wt nAChR is 186 nM. The “PAM_Type PAM type” value in data set [1] came out at 0.

As to `CCC(=O)NCc1nc(N2C[C@@H](C)O[C@@H](C)C2)sc1-c1cc(C)nc(C)c1` [Compound 39, N-[[2-[(2R,6S)-2,6-dimethyl-4-morpholinyl]-5-(2,6-dimethyl-4-pyridinyl)-4-thiazolyl]methyl]-propanamide], the melting point was 176 °C. In addition, at human alpha 7-wt nAChR, the Emax amounted to 498% and the EC50 is 871 nM. In addition, in data set [1], the “PAM_Type PAM type” value was determined as 2.

Turning to `CC(C)C(=O)NCc1nc(N2C[C@@H](C)O[C@@H](C)C2)sc1-c1ccnc(C(F)(F)F)c1` [Compound 201, N-[[2-[(2R,6S)-2,6-dimethyl-4-morpholinyl]-5-[2-(trifluoromethyl)-4-pyridinyl]-4-thiazolyl]methyl]-2-methyl-propanamide], the melting point turned out to be 216 °C. Besides, on human alpha 7-wt nAChR, the Emax worked out at 930% and the EC50 was 245 nM. The “PAM_Type PAM type” value in data set [1] was 1.

Compound `COc1cc(-c2sc(N3C[C@@H](C)O[C@@H](C)C3)nc2CNC(=O)c2cccc(F)c2)cc(C)n1` [Compound 85, N-[[2-[(2R,6S)-2,6-dimethyl-4-morpholinyl]-5-(2-methoxy-6-methyl-4-pyridinyl)-4-thiazolyl]methyl]-3-fluoro-benzamide] showed a melting point of 172 °C. At human alpha 7-wt nAChR, the Emax was 320% and the EC50 is 708 nM. For the same compound, the “PAM_Type PAM type” value in data set [1] amounted to 0.
